Measurements: article PMC11323273, “A Multipurpose Metallophore and Its Copper Complexes with Diverse Catalytic Antioxidant Properties to Deal with Metal and Oxidative Stress Disorders: A Combined Experimental, Theoretical, and In Vitro Study” (Inorganic Chemistry, 2024)
Read-outs that look alike come from different tables or passages of the source.

Legend:
[1] = cited from earlier work
[2] = test system: Rat glioma C6 cells; test: ROS mitigation in cells using DCFH-DA; type: cell-based
Protocol: Rat C6 glioma cells were grown in a 25 cm^2 culture flask containing Dulbecco’s modified Eagle medium (DMEM) supplemented with 10% (v/v) fetal bovine serum (FBS) at 37 °C in a 5% CO2 atmosphere.
To evaluate redox homeostasis, the level of ROS was assessed using the redox-sensitive dye 2′,7′-dichlorodihydrofluorescein diacetate (DCFH-DA). Rat C6 glioma cells were seeded at a density of 1 × 10^5 cells/well in a 96-well plate and cultured in high-glucose DMEM supplemented with 10% (v/v) FBS at 37 °C in a 5% CO2 atmosphere. The cells were pretreated with the compounds (25 μmol L^–1) and incubated for 24 h. The cells were washed and subjected to different oxidative stress models for 1 h, including (i) metallic stress via the addition of 25 μmol L^–1 CuCl, (ii) direct addition of a 25 μmol L^–1 hydrogen peroxide solution, (iii) superoxide anion (O2^•–) generated by the xanthine ([…])/xanthine oxidase (0.1 unit/mL) enzymatic system, and (iv) hydroxyl radical (^•OH) generated by the Fenton reaction using 0.4 μmol L^–1 CuCl and 4 μmol L^–1 H2O2. The concentrations refer to the final concentrations of each well. After exposure to the oxidative stress conditions, the cells were washed and incubated with DCFH-DA (10 μmol L^–1) for 45 min. The fluorescence was measured using the model M200 Tecan Infinite microplate reader with excitation and emission wavelengths of 450 and 535 nm, respectively.

[3] = Potentiometric titration: protonation equilibria and species distribution; type: physicochemical; conditions: 70:30 ethanol/water solution, 25 °C, read-out: log K [H2L^+]/[HL][H^+] (pKa of the amine group)
Protocol: The potentiometric studies were carried out with a Corning 350 digital pH meter fitted with blue-glass and Ag/AgCl reference electrodes calibrated to read −log[H^+] directly, designated as pH. Doubly distilled water in the presence of KMnO4 was used to prepare the solutions. For the ligands, the study was performed in a 70:30 ethanol/water solution, while the copper complexes were studied in water. The electrode was calibrated using the data obtained from the potentiometric titration of a known volume of a standard 0.100 mol L^–1 HCl solution with a standard 0.100 mol L^–1 KOH solution. The ionic strength of the HCl solution was maintained at 0.100 mol L^–1 upon the addition of KCl. […]
The titration curves were processed with BEST7,[86] which has as input file: titrant concentration, an initial value for the number of millimoles of the species under investigation, the volume increments of the titrant added, and the corresponding values of pH measured during titration. The program uses the least-squares method to minimize the differences between the calculated pH values and the experimental ones obtained during the titration, keeping fixed the values of the known equilibrium constants, such as those for the hydrolysis of the metal ion,[87] and varying the values of the constants to be determined, minimizing the error. […]

[4] = parameters: method as in PMID 4833643; conditions: cited from earlier work
[5] = parameters: method as in doi:10.3390/pr10010132; conditions: studied under the same conditions; read-out: RSA50; cited from earlier work

For NC(=O)CCNCCNCCC(N)=O.[Cl-].[Cl-].[Cu+2] [[Cu(BCEN)]Cl2·2H2O], the IC50 [1] is listed as 0.179 ± 0.017 µM.

In the case of [Cl][Cu] [Cu(I), CuCl, reference compound], the “increase of cell fluorescence (ROS level) compared to the control” value ([2]; 25 μmol L^–1 CuCl, 1 h) is reported as 3 fold.

With CC(O)CNCc1ccccn1 (stereo not shown) [HL, 1-(pyridin-2-ylmethylamino)propan-2-ol] the pKa [3] was 8.11, the “antioxidant effect in cells exposed to hydroxyl radical” value ([2]; pretreatment 25 μmol L^–1, 24 h, 0.4 μmol L^–1 CuCl and 4 μmol L^–1 H2O2 1 h) was “HL ∼ 1 > 2” and the “redox status of cells exposed to Cu(I) (DCFH-DA fluorescence)” value ([2]; pretreatment 25 μmol L^–1, 24 h, 25 μmol L^–1 CuCl 1 h) was “no change in the cell redox status”. The “protection of cells against exogenous H2O2 (redox level)” value ([2]; pretreatment 25 μmol L^–1, 24 h, 25 μmol L^–1 H2O2 1 h) was “maintaining the redox state at the basal level”, the “antioxidant protection of cells against superoxide radical anion” value ([2]; pretreatment 25 μmol L^–1, 24 h, xanthine/xanthine oxidase 1 h) was “maintaining the redox state at the basal level” and the “pKa of the pyridine group” value [4] was less than 3.

In the case of [Cl][Cu][Cl] [CuCl2·2H2O], the IC50 [1] is given as 0.91 ± 0.191 µM.

In the case of c1ccc(CNCc2ccccn2)nc1 [bis(2-pyridylmethyl)amine, reference compound], the pKa ([4]; amine group) is given as 7.28.

For [Cl][Cu][Cl].c1ccc(CNCc2ccccn2)nc1 [[Cu(bmpa)Cl2]], the EC50 [5] is given as 1070 µM.

In the case of NC(=O)CCN1CCN(CCC(N)=O)CC1.[Cl-].[Cl-].[Cu+2] [[Cu(BPAP)H2O]Cl2], the IC50 [1] is listed as 0.168 ± 0.03 µM.

In the case of NC(=O)CCN1CCCN(CCC(N)=O)CC1.[Cl-].[Cl-].[Cu+2] [[Cu(BPAH)H2O]Cl2], the IC50 [1] is given as 0.129 ± 0.033 µM.
